Test results reported in patent US11773157B2, “Compositions and methods for treating and preventing Staphylococcus aureus infections” (priority 2014, dated 2023).

System: MRSA (NR 46223)
Assay: In vivo survival, MRSA bacteremia with vancomycin co-treatment
Set-up: species or system Balb/C mice
Settings: 0.5 mg vancomycin i.p. alone (0 mg PA8-G3), two hours prior to infection; 3×10^7 CFU i.v.; PBS 10%
Experimental: Referring to FIGS. 8A-C, at day 14, only 10% of the PBS treated mice survived, 30% of the vancomycin treated mice survived. […] Statistical analysis of the animal data was conducted using Kaplan-Meier Survival Analysis with a Mantel-Cox (logrank) test.

In the case of `CN[C@H](CC(C)C)C(=O)N[C@H]1C(=O)N[C@@H](CC(N)=O)C(=O)N[C@H]2C(=O)N[C@H]3C(=O)N[C@H](C(=O)N[C@H](C(=O)O)c4cc(O)cc(O)c4-c4cc3ccc4O)[C@H](O)c3ccc(c(Cl)c3)Oc3cc2cc(c3O[C@@H]2O[C@H](CO)[C@@H](O)[C@H](O)[C@H]2O[C@H]2C[C@](C)(N)[C@H](O)[C@H](C)O2)Oc2ccc(cc2Cl)[C@H]1O` [vancomycin, reference compound], the “mice survived at day 14” value is reported as 30%.
